# In article PMC8286840, “Identifying SARS-CoV-2 antiviral compounds by screening for small molecule inhibitors of Nsp3 papain-like protease” (Biochemical Journal, 2021):
# Where a name gives a salt, the structure may show the parent alone. Read-outs that look alike come from different tables or passages of the source. *1 amine or outer side, *2 acyl side, *3 side chain or, on linkers, in order; H or OH if unused. Where a SMILES comes first, the peptide text is derived from it. Side-chain parts run from the residue outwards. [ ]: non-standard residue; d: D form. The star is where a group is joined. Ethylenediamine = C(CN[*:2])N[*:1]; Hyp = O=C(O)[C@@H]1C[C@@H](O)CN1; Phg = N[C@H](C(=O)O)c1ccccc1; CO = O=C([*:1])[*:2]; Bn = c1ccc(C*)cc1
# Legend:
# [1] = molecular target: T1, SARS-CoV-2 PLpro (nsp3 1564–1878) (Severe acute respiratory syndrome coronavirus 2, UniProt P0DTD1); assay: biochemical; design: FRET-quenched peptide (Pro3) cleavage by PLpro, 10 min pre-incubation, slope over 20 min, normalised to no-compound control; details: high concentration screen, read-out: % of control remaining
# [2] = molecular target: T1, SARS-CoV-2 PLpro (nsp3 1564–1878); assay: biochemical; design: FRET-quenched peptide (Pro3) cleavage by PLpro, 10 min pre-incubation, slope over 20 min, normalised to no-compound control; details: low concentration screen, read-out: % of control remaining
compound,measurement,setting,value
"CCCCC/C=C\C/C=C\CCCCCCCCC(=O)O [10(Z),13(Z)-Nonadecadienoic acid]",remaining activity at 3.75 µM,[1]; Well no.=4396,92.5%
same,remaining activity at 1.25 µM,[2]; Well no.=4396,97.8%
CCCCCC(O)c1cccc(OCc2ccc3ccccc3n2)c1 (stereo not drawn) [REV-5901],remaining activity at 3.75 µM,[1]; Well no.=4520,95.4%
same,remaining activity at 1.25 µM,[2]; Well no.=4520,92.4%
COc1cccc2c1C(=O)c1c(O)c3c(c(O)c1C2=O)C[C@@](O)(C(=O)CO)C[C@@H]3O[C@H]1C[C@H](N)[C@@H](O)[C@H](C)O1 [Epirubicin HCl],remaining activity at 3.75 µM,[1]; Well no.=5141,107%
same,remaining activity at 1.25 µM,[2]; Well no.=5141,106%
NCCCC[C@@H]1NC(=O)[C@@H](Cc2c[nH]c3ccccc23)NC(=O)[C@H](c2ccccc2)NC(=O)[C@@H]2C[C@@H](OC(=O)NCCN)CN2C(=O)[C@H](Cc2ccccc2)NC(=O)[C@H](Cc2ccc(OCc3ccccc3)cc2)NC1=O [Pasireotide (ditrifluoroacetate)] (cyclo([Hyp]([CO-Ethylenediamine])[Phg][dW]KY(Bn)F)),remaining activity at 3.75 µM,[1]; Well no.=7988,101%
same,remaining activity at 1.25 µM,[2]; Well no.=7988,96.1%
CC(C)(C(=O)O)c1ccc(C(O)CCCN2CCC(C(O)(c3ccccc3)c3ccccc3)CC2)cc1 (stereo not drawn) [Fexofenadine (hydrochloride)],remaining activity at 3.75 µM,[1]; Well no.=6619,105%
same,remaining activity at 1.25 µM,[2]; Well no.=6619,104%
O=C(C1CCCCC1)N1CC(=O)N2CCc3ccccc3C2C1 (stereo not drawn) [Praziquantel],remaining activity at 3.75 µM,[1]; Well no.=908,104%
same,remaining activity at 3.75 µM,[1]; Well no.=2155,100%
same,remaining activity at 1.25 µM,[2]; Well no.=908,106%
same,remaining activity at 1.25 µM,[2]; Well no.=2155,102%
CC(CCc1ccccc1)NCC(O)c1ccc(O)c(C(N)=O)c1 (stereo not drawn) [Labetalol (hydrochloride)],remaining activity at 3.75 µM,[1]; Well no.=8287,94.7%
same,remaining activity at 1.25 µM,[2]; Well no.=8287,99.3%
O=C1N(c2ccccc2)c2ccccc2C1(Cc1ccncc1)Cc1ccncc1 [Linopirdine],remaining activity at 3.75 µM,[1]; Well no.=822,105%
same,remaining activity at 1.25 µM,[2]; Well no.=822,104%
O=C(O)CCCN1CCC(O[C@@H](c2ccc(Cl)cc2)c2ccccn2)CC1 [Bepotastine (Beslilate)],remaining activity at 3.75 µM,[1]; Well no.=6333,93.3%
same,remaining activity at 1.25 µM,[2]; Well no.=6333,97.3%
COC(=O)[C@H](c1ccccc1Cl)N1CCc2sccc2C1 [Clopidogrel (hydrogen sulfate)],remaining activity at 3.75 µM,[1]; Well no.=7563,96.5%
same,remaining activity at 3.75 µM,[1]; Well no.=7926,98.2%
same,remaining activity at 1.25 µM,[2]; Well no.=7563,95.7%
same,remaining activity at 1.25 µM,[2]; Well no.=7926,95.8%
CC1CCN(CC[C@H]2CCCN2S(=O)(=O)c2cccc(O)c2)CC1 [SB-269970 (hydrochloride)],remaining activity at 3.75 µM,[1]; Well no.=8385,101%
same,remaining activity at 1.25 µM,[2]; Well no.=8385,108%
O=C(Nc1ccccc1-c1cn2c(CN3CCNCC3)csc2n1)c1cnc2ccccc2n1 [SRT1720],remaining activity at 3.75 µM,[1]; Well no.=4673,98.8%
same,remaining activity at 1.25 µM,[2]; Well no.=4673,100%
"CCCCCC/C=C/C=C\CCCCCCCC(=O)O [(9Z,11E)-Octadecadienoic acid]",remaining activity at 3.75 µM,[1]; Well no.=4354,106%
same,remaining activity at 1.25 µM,[2]; Well no.=4354,106%
CCn1cc(-c2ccc3c(c2)CCN3C(=O)Cc2cccc(OC(F)(F)F)c2)c2c(N)ncnc21 [RIPK1-IN-7],remaining activity at 3.75 µM,[1]; Well no.=6824,94.4%
same,remaining activity at 1.25 µM,[2]; Well no.=6824,94.8%
CCC[C@@H]1C[C@@H](C(=O)N[C@@H]([C@H]2O[C@H](SC)[C@H](OP(=O)(O)O)[C@@H](O)[C@H]2O)[C@H](C)Cl)N(C)C1 [Clindamycin phosphate],remaining activity at 3.75 µM,[1]; Well no.=5052,104%
same,remaining activity at 1.25 µM,[2]; Well no.=5052,105%
C=CCCCCCCCCCCC(=O)O [12-Tridecenoic acid],remaining activity at 3.75 µM,[1]; Well no.=4264,98%
same,remaining activity at 1.25 µM,[2]; Well no.=4264,91.3%
CCCCCCCC(=O)N[C@H](CN1CCCC1)[C@H](O)c1ccc2c(c1)OCCO2 [Eliglustat],remaining activity at 3.75 µM,[1]; Well no.=8530,99%
same,remaining activity at 1.25 µM,[2]; Well no.=8530,100%
O=C(O)c1cc(O)c2ccc(Cl)cc2n1 [7-Chlorokynurenic acid],remaining activity at 3.75 µM,[1]; Well no.=581,103%
same,remaining activity at 1.25 µM,[2]; Well no.=581,104%
CN(C(=O)c1c(O)c2ccccc2n(C)c1=O)c1ccccc1 [Roquinimex],remaining activity at 3.75 µM,[1]; Well no.=6160,96.9%
same,remaining activity at 1.25 µM,[2]; Well no.=6160,103%
CC(C)n1nc(-c2ccc3oc(N)nc3c2)c2c(N)ncnc21 [INK 128 (MLN0128)],remaining activity at 3.75 µM,[1]; Well no.=5133,104%
same,remaining activity at 1.25 µM,[2]; Well no.=5133,98.6%
CN(C)CCC(c1ccccc1)c1ccccn1 (stereo not drawn) [Pheniramine (Maleate)],remaining activity at 3.75 µM,[1]; Well no.=6799,90%
same,remaining activity at 1.25 µM,[2]; Well no.=6799,99.4%
Cc1ccc(NS(=O)(=O)c2ccc3c(c2)C2C=CCC2C(c2ccc(C(=O)O)cc2)N3)cc1C (stereo not drawn) [MX69],remaining activity at 3.75 µM,[1]; Well no.=6822,94.1%
same,remaining activity at 3.75 µM,[1]; Well no.=7984,98.5%
same,remaining activity at 1.25 µM,[2]; Well no.=6822,97.6%
same,remaining activity at 1.25 µM,[2]; Well no.=7984,100%
CC(=O)Nc1ccn([C@@H]2O[C@H](COP(=O)(O)OP(=O)(O)OP(=O)(O)O)[C@@H](O)[C@H]2O)c(=O)n1 [N4-Acetylcytidine triphosphate (sodium)],remaining activity at 3.75 µM,[1]; Well no.=7305,109%
same,remaining activity at 3.75 µM,[1]; Well no.=7964,92.1%
same,remaining activity at 1.25 µM,[2]; Well no.=7305,109%
same,remaining activity at 1.25 µM,[2]; Well no.=7964,95.2%
O=C(O)CCCCCCCCC(=O)O [Decanedioic acid],remaining activity at 3.75 µM,[1]; Well no.=6453,95.8%
same,remaining activity at 1.25 µM,[2]; Well no.=6453,93%
CC(C(=O)O)c1ccc(CC2CCCC2=O)cc1 (stereo not drawn) [loxoprofen],remaining activity at 3.75 µM,[1]; Well no.=927,105%
same,remaining activity at 1.25 µM,[2]; Well no.=927,104%
COc1cc(=O)oc(/C=C/C=C/C=C/C(C)=C/[C@]2(C)O[C@H](C)[C@](C)(O)[C@H]2O)c1C [Citreoviridin],remaining activity at 3.75 µM,[1]; Well no.=3391,96.6%
same,remaining activity at 1.25 µM,[2]; Well no.=3391,92.8%
O=C(N[C@H](CO)[C@H](O)c1ccc([N+](=O)[O-])cc1)C(Cl)Cl [Chloramphenicol],remaining activity at 3.75 µM,[1]; Well no.=2223,96.6%
same,remaining activity at 1.25 µM,[2]; Well no.=2223,96.9%
C[C@@H]([C@@H](O)c1ccc(O)cc1)N1CCC(O)(c2ccccc2)CC1 [CP-101606 mesylate],remaining activity at 3.75 µM,[1]; Well no.=5955,98.9%
same,remaining activity at 1.25 µM,[2]; Well no.=5955,98.1%
CN1CCC(=C2c3ccccc3CC(=O)c3sccc32)CC1 [Ketotifen],remaining activity at 3.75 µM,[1]; Well no.=2056,109%
same,remaining activity at 1.25 µM,[2]; Well no.=2056,108%
CN(C)Cc1cccc(N/C(=C2\C(=O)Nc3cc(C(N)=O)ccc32)c2ccccc2)c1 [BIX 02188],remaining activity at 3.75 µM,[1]; Well no.=5283,93.8%
same,remaining activity at 1.25 µM,[2]; Well no.=5283,96.6%
NC[C@@H](O)c1ccc(O)c(O)c1 [L(-)-Norepinephrine bitartrate],remaining activity at 3.75 µM,[1]; Well no.=58,99.2%
same,remaining activity at 1.25 µM,[2]; Well no.=58,102%
O=C(c1cc2cc(O)ccc2[nH]1)c1cc2cc(O)ccc2[nH]1 [Flt-3 Inhibitor II],remaining activity at 3.75 µM,[1]; Well no.=2409,110%
same,remaining activity at 1.25 µM,[2]; Well no.=2409,109%
